Experiments:
Parameters in all cases: species or system AML cell lines (8); Primary HTS, single concentration about 10 uM, Cell Titer Glo viability; log10 luminescence, per cent inhibition relative to cycloheximide control
Settings in all cases: 72 h, relative to cycloheximide control, log10 luminescence; inhibitor
MOLM-13 = tested on: MOLM-13
CHRF288-11 = tested on: CHRF288-11
U937 = tested on: U937
M07e = tested on: M07e
CMK = tested on: CMK
ML-2 = tested on: ML-2
MV4-11 = tested on: MV4-11
CMS = tested on: CMS

| Compound | MOLM-13 %inh (MOLM-13) | CHRF288-11 %inh (CHRF288-11) | U937 %inh (U937) | M07e %inh (M07e) | CMK %inh (CMK) | ML-2 %inh (ML-2) | MV4-11 %inh (MV4-11) | CMS %inh (CMS) |
| --- | --- | --- | --- | --- | --- | --- | --- | --- |
| CC1(OC(=O)C2CCCC2)C(=O)C=C2C=C(c3ccsc3)OC=C2C1=O (stereo not drawn) [SJ000580213-1] | 3.751% | 1.734% | 2.696% | -2.766% | 0.9758% | -0.1394% | 0.3204% | 3.861% |
| CC1(OC(=O)c2cccs2)C(=O)C=C2C=C3CCCN3C=C2C1=O (stereo not drawn) [SJ000580493-1] | -0.7413% | 4.124% | 1.415% | 2.009% | 4.862% | -0.6831% | 2.091% | 2.99% |
| COc1ccc(O)c(C(=O)c2ccc(C(=O)O[C@@H]3CCCNC[C@H]3NC(=O)c3ccncc3)cc2)c1F [SJ000580951-1] | 81.23% | 109.9% | 74.66% | 15.86% | 131.3% | 61.64% | 68.34% | 13.47% |
| Cn1cc(C2=C(c3cn(CCCCN)c4ccccc34)C(=O)NC2=O)c2ccccc21 [SJ000580952-1] | 4.295% | 13.76% | 11.79% | -0.5312% | 13.68% | 4.061% | 8.937% | 1.981% |
| CC(=O)N[C@@H](Cc1ccc(OP(=O)(O)O)cc1)C(=O)N[C@H]1CCC(=O)N2CCC[C@@H](C(=O)NC3CCc4ccccc43)N2C1=O (stereo partly drawn) [SJ000580953-1] | 0.9252% | 3.338% | -1.364% | -2.209% | 1.012% | 0.02578% | -1.841% | -2.328% |
| O=C1NC(=NCCc2ccc(F)cc2)S/C1=C\c1ccc2ncccc2c1 [SJ000580954-1] | 4.197% | -1.783% | 1.346% | -2.647% | 4.249% | 0.5359% | -0.3593% | -3.568% |
| CC(C)c1[nH]nc2c1N=C(c1ccccc1Cl)c1cc([N+](=O)[O-])ccc1N2 [SJ000580955-1] | 0.5223% | 1.018% | -1.286% | 0.02064% | 2.501% | -0.2118% | 1.567% | -2.316% |
| O=C1NC(=NCCc2cccc(Cl)c2)S/C1=C\c1ccc2ncccc2c1 [SJ000580956-1] | 9.124% | 2.333% | 20% | 0.9407% | 32.59% | 10.56% | 2.972% | 5.008% |
| C[C@@H](Cn1ncnn1)Nc1ncc2cc(Oc3ccc(F)cc3F)c(=O)n(C)c2n1 [SJ000580957-1] | 1.122% | 0.5625% | 0.5561% | 0.2176% | 6.727% | 0.7836% | -1.139% | 0.2461% |
| Cn1c(=O)c(Cc2ccccc2F)cc2cnc(NC3CCOCC3)nc21 [SJ000580958-1] | 5.832% | 0.1529% | 8.088% | 0.7689% | 5.964% | 0.5571% | 6.415% | 0.1397% |
| O=C1NC(=Nc2ccccc2)S/C1=C\c1ccc2ncccc2c1 [SJ000580960-1] | 1.819% | -1.26% | 2.19% | -2.396% | 5.474% | 0.4587% | 2.663% | -0.1285% |
| O=c1c(Oc2ccc(F)cc2F)cc2cnc(NC3CCOCC3)nc2n1C1CCS(=O)(=O)CC1 [SJ000580961-1] | 0.9477% | -4.195% | 4.388% | -1.798% | 4.971% | 0.6064% | 0.879% | -0.4155% |
| O=c1c(Oc2ccc(F)cc2F)cc2cnc(NC3CCOCC3)nc2n1CCCO [SJ000580962-1] | 0.8881% | 3.259% | 2.637% | -0.6973% | 6.717% | 1.08% | 3.176% | 2.142% |
| Cn1cc(C2=C(c3c4n(c5ccccc35)CCCC4)C(=O)NC2=O)c2ccccc21 [SJ000580963-1] | 2.901% | 3.717% | 27.07% | 29.09% | 59.12% | 20.63% | 8.237% | 9.345% |
| Cn1c(=O)c(Oc2ccc(F)cc2F)cc2cnc(NCCS(C)(=O)=O)nc21 [SJ000580964-1] | 0.541% | -0.5727% | 5.046% | -0.966% | 2.942% | -0.4027% | 3.561% | -1.101% |
| Cn1cc(C2=C(c3cccc(Br)c3)C(=O)NC2=O)c2ccccc21 [SJ000580965-1] | 4.067% | 0.5807% | 10.11% | 3.983% | 8.568% | -0.4526% | 8.448% | 0.1878% |
| Cc1c(C2=C(c3cn(C)c4ccccc34)C(=O)NC2=O)c2ccccc2n1C [SJ000580966-1] | 2.992% | 4.622% | 14.47% | 4.858% | 42.24% | 15.84% | -0.1129% | -2.63% |
| Cn1cc(C2=C(c3cn(C)c4ccc(N)cc34)C(=O)NC2=O)c2ccccc21 [SJ000580967-1] | 8.368% | 11.3% | 7.089% | 2.999% | 43.44% | 0.6002% | 0.6883% | 2.341% |
| C[C@H](O)CNc1cc(-c2[nH]c3cccnc3c2-c2ccc(F)cc2)ccn1 [SJ000580968-1] | 2.412% | -0.7944% | 2.723% | -0.9304% | 8.696% | -2.119% | 1.217% | -1.462% |
| O=C1NC(=NCCc2ccc(Cl)cc2)S/C1=C\c1ccc2ncccc2c1 [SJ000580969-1] | 1.832% | 2.273% | -0.9947% | -1.208% | 0.9453% | -0.5014% | 1.31% | 0.8596% |
| Cn1cc(C2=C(c3cn(C)c4cc(C(=O)O)ccc34)C(=O)NC2=O)c2ccccc21 [SJ000580970-1] | 4.437% | 12.22% | -0.7361% | -3.399% | 35.03% | -3.521% | 2.908% | -3.422% |
| Cn1c(=O)c(Oc2ccc(F)cc2F)cc2cnc(NC(C)(C)CO)nc21 [SJ000580971-1] | 3.693% | 4.115% | 1.382% | 0.06396% | 4.061% | -1.151% | 3.201% | -1.762% |
| Cn1c(=O)c(Oc2ccc(F)cc2)cc2cnc(NC3CCOCC3)nc21 [SJ000580972-1] | -0.3408% | 0.05441% | 2.684% | 1.712% | 4.681% | -0.6256% | -1.036% | 3.35% |
| Nc1c(C(=O)c2cccc(C#CCN3CCOCC3)c2)cnn1-c1ccc(F)cc1 [SJ000580973-1] | 2.598% | 3.718% | 6.28% | 5.913% | 37.5% | 0.4746% | 1.084% | 0.1973% |
